Columns and labels:
[1] = Phase 1/2 study Part A: safety and tolerability
Source text: The study is designed as a Phase 1/2 trial consisting of two parts: dose escalation (Part A) and dose expansion (Part B).
Subsequently, a standard escalation dosing schedule with approximately 50% dose increments and 6 subjects per cohort will be initiated in order to establish the non-tolerated dose (NTD) and MTD. Smaller increments and additional subjects within a dose cohort may also be evaluated.
A dose will be considered to be non-tolerated if 2 evaluable subjects in a dose cohort experience dose-limiting toxicity (DLT). When a NTD is defined, dose escalation will be stopped. The MTD will be defined as the last dose tested below the NTD with 0 or 1 out of 6 evaluable subjects experiencing DLT during Cycle 1. An intermediate dose (i.e., one between the NTD and the last dose level before the NTD) or additional subjects within any dose cohort may be required to determine the MTD more precisely.
The safety variables for this study are adverse events, clinical laboratory variables, 12-lead ECGs (centrally reviewed), LVEF assessments, physical examinations and vital signs. In Part A, the decision to either evaluate a higher dose level or declare a MTD will be determined by the Safety Review Committee (SRC) each time all clinical and laboratory safety data for a given cohort is available for review. The SRC will also determine the dose, doses, or schedule appropriate for Part B. During Part B, the SRC will continue to review safety data regularly and make recommendations about the study continuation, as appropriate.
Part A: Accelerated Dose Escalation Results.

[2] = tested on: TORC1 (pS6, p4EBP1) and TORC2 (pAkt) pathways; experiment: TOR pathway biomarker measurements in whole blood; assay type: in vivo, human
Source text: Parameters to be explored include mTOR biomarker inhibition in blood and tumor, histopathologic response, correlations with pharmacogenomic findings and percentage of inhibition of pAKT (Ser473), phospho-S6RP (Ser235/236 and/or Ser240/244), phospho-4EB-P1 (Thr37/46), and/or other relevant biomarkers in peripheral blood samples and tumor, adverse events and clinical outcome. The pharmacodynamic (PD) measurements are incorporated in this study to evaluate target inhibition of mTORC1 and mTORC2 pathways, the consequences of such inhibition, and PK/PD relationships. In Parts A and B, biomarker analysis will involve measuring pAKT (mTORC2) in protein lysates derived from isolated platelets. Levels of p4EB-P1 and pS6RP (mTORC1), and pAKT (mTORC2), will be measured by flow cytometry using whole blood samples. Likewise, in Parts A and B, pAKT, p4EB-P1, p56, Ki67 and/or other relevant markers to assess Compound 1 activity will be measured in serial tumor biopsies from subjects with accessible disease when possible. The changes of each biomarker will be determined by comparing the levels of biomarkers in pre- and post-treatment samples and, where possible, correlate these with drug exposure in blood, and tissue if available, and tumor response over time. Full details of all statistical analyses and modeling for these outcomes will be described in the statistical analysis plan and final study report.
TOR Pathway Biomarker Measurements in Whole Blood. Blood samples received from clinical sites were aliquoted into a 96-deepwell plate and rested for 1 hour at 37° C. The samples were stimulated with anti-IgD and LPS for 15 minutes at 37° C. The red blood cells were lysed and the white blood cells were fixed with BD Lyse/Fix Buffer at a ratio of 15:1 buffer to blood for 10 minutes at 37° C. The plates were centrifuged, aspirated, and 1 mL of ice-cold methanol was added to the wells containing fixed white blood cells to permeabilize the cells for intracellular staining. The plates were stored overnight at −80° C. The plates were thawed, centrifuged, aspirated and washed twice with PBS+0.5% BSA. The cells were stained with antibodies specific for the surface markers CD3, CD14, and CD19, and for mTOR pathway markers, including pS6 (S235/236), p4EBP1 (T37/46), and pAKT (S473). The cells were washed twice with PBS and fixed with 1.6% PFA.
Sample analysis: The samples were analyzed on an 8 color cytometer. Control wells of 8-peak rainbow beads (Spherotech Libertyville, Ill.) were acquired at multiple points during sample acquisition. The median fluorescence intensity (MFI) was computed for each marker from the fluorescence intensity levels in T cells, B cells, and monocytes. The MFI were normalized using the 8-peak rainbow beads and presented as ERF (Equivalent number of Reference Fluorophores). ERFs were calculated from the MFIs using a linear regression transformation carried out on a log-log scale using the rainbow calibration particles with 8 intensities on 8 colors. The percent change from baseline for pS6, p4EBP1, and pAKT in stimulated and non-stimulated T cells, B cells, and monocytes was determined for each patient. The baseline value was an average of two visits (screening and cycle 1/day −1 at 0 hr pre-dose) when available.

DB = experiment: Apoptosis assay for NHL lines (Caspase 3/7-Glo); assay type: cell-based; details: NHL DLBCL, 24 hours, n = 1
Procedure: (§1) Apoptosis Assay for NHL Lines. Prior to testing, cells were grown and expanded in culture flasks to provide sufficient amounts of starting material. Cells were then diluted to their desired densities and added directly to compound-spotted 384-well plates. Cells were allowed to grow for 24 hours in 5% CO2 at 37° C. The apoptotic response was assessed by quantifying the activities of caspase 3 and caspase 7 (Caspase 3/7-Glo) in treated cells and control cells at the 24-hour time point. All data was normalized and represented as a value relative to the DMSO-treated cells. Results were then expressed as CalX, which is the minimum compound concentration required to double the levels of caspase 3/7 relative to those of the DMSO-treated cells during their treatment period.

SC-1 = experiment: Apoptosis assay for NHL lines (Caspase 3/7-Glo); assay type: cell-based; details: SC-1, NHL FL, 24 hours, n = 1
Procedure: as §1

DOHH-2 = experiment: Apoptosis assay for NHL lines (Caspase 3/7-Glo); assay type: cell-based; details: DOHH-2, NHL FL, 24 hours, n = 1
Procedure: as §1

OCI-LY-3 = experiment: Apoptosis assay for NHL lines (Caspase 3/7-Glo); assay type: cell-based; details: OCI-LY-3, NHL DLBCL, 24 hours, n = 1
Procedure: as §1

WSU-NHL = experiment: Apoptosis assay for NHL lines (Caspase 3/7-Glo); assay type: cell-based; details: NHL FL, 24 hours, n = 1
Procedure: as §1

NU-DHL-1 = experiment: Apoptosis assay for NHL lines (Caspase 3/7-Glo); assay type: cell-based; details: NU-DHL-1, NHL DLBCL, 24 hours, n = 1
Procedure: as §1

SU-DHL-6 = experiment: Apoptosis assay for NHL lines (Caspase 3/7-Glo); assay type: cell-based; details: SU-DHL-6, NHL DLBCL, 24 hours, n = 1
Procedure: as §1

CO[C@H]1CC[C@H](N2C(=O)CNc3ncc(-c4ccc(C(C)(C)O)nc4)nc32)CC1 [Compound 1, 7-(6-(2-hydroxypropan-2-yl)pyridin-3-yl)-1-((1r,4r)-4-methoxycyclohexyl)-3,4-dihydropyrazino-[2,3-b]pyrazin-2(1H)-one]
DLT ([1]; 30 mg): Grade 3 hyperglycemia | DLT ([1]; 45 mg): grade 3 rash | DLT ([1]; 60 mg): Fatigue and mucositis | dose level of the first grade 2 related toxicity ([1]; 3rd dose level): 30 mg | most frequent related events ([1]; N=28, 7.5 to 60 mg): Fatigue, GI toxicity (including mucositis/stomatitis), hyperglycemia, rash and arthralgia | MTD ([1]; once daily, oral): 45 mg | NTD ([1]; once daily, oral): 60 mg | Hyperglycemia ([1]; onset often during cycle 1, dose related): reported frequently | interstitial pneumonitis ([1]; responded to steroid treatment): One case of grade 3 interstitial pneumonitis requiring hospitalization | tolerability ([1]; toxicities comparable to other drugs targeting this pathway): well tolerated | inhibition of TORC1 and TORC2 biomarkers ([2]; Part A, doses of 30 mg and higher, up to 5 hours post first dose, stimulated blood): Consistent inhibition | TORC1 and TORC2 inhibition ([2]; Part B, DLBCL patients): observed in the first patient analyzed | TORC1 and TORC2 inhibition ([2]; Part B, GBM patients): observed in majority of patients | TORC1 and TORC2 inhibition ([2]; Part B, HCC patients): observed in majority of patients | TORC1 and TORC2 inhibition ([2]; Part B, MM patients): observed in 2 patients | TORC1 and TORC2 inhibition ([2]; Part B, NSCLC patients): observed in majority of patients | TORC1 and TORC2 inhibition (pAkt, p4EPB1) ([2]; Part B, all cohorts, blood, 1.5 h after dosing, Cycle 1 Day 1 and Day 15, P <0.001): inhibition was observed | Apoptotic (DB): N/Y | CalX (minimum concentration to double caspase 3/7) (DB): 5.44 | CalX (minimum concentration to double caspase 3/7) (SC-1): 10 | CalX (minimum concentration to double caspase 3/7) (DOHH-2): 0.14 | CalX (minimum concentration to double caspase 3/7) (OCI-LY-3): 0.67 | CalX (minimum concentration to double caspase 3/7) (WSU-NHL): 0.16 | CalX (minimum concentration to double caspase 3/7) (NU-DHL-1): 0.41 | CalX (minimum concentration to double caspase 3/7) (SU-DHL-6): 10

Reference: US9493466B2, “Treatment of cancer with TOR kinase inhibitors” (Signal Pharmaceuticals, LLC, priority 2011, dated 2016)
